We go through four sequences from US20070128217A1 (priority 2003, published 2007).

Assay [1] has as its system rabbit serum obtained by immunizing a rabbit with the SARS-CoV strain Frankfurt 1. Type of assay: binding. More on the design: Binding of a rabbit serum to linear peptides / Binding of a rabbit serum to looped peptides / Rabbit serum linear peptides / Rabbit serum looped peptides / Binding of a rabbit serum to linear peptides of protein N of SARS-CoV Urbani (Rabbit serum linear peptides) / Binding of a rabbit serum to looped/cyclic peptides of protein N of SARS-CoV Urbani (Rabbit serum looped peptides): unit not given here.

The test system of assay [2] is control sera (pooled serum of ten healthy LUMC hospital workers; commercial negative donor pooled serum from the Dutch bloodbank). Format: binding, human. Set-up: Binding of Control serum LUMC to linear peptides / Binding of Control serum Blood-bank to linear peptides / Binding of Control serum LUMC to looped peptides / Binding of Control Serum Blood-Bank to Looped peptides / Binding of Control serum LUMC to linear peptides of the protein M of SARS-CoV Urbani / Binding of Control serum Blood-bank to linear peptides of the protein M of SARS-CoV Urbani / Binding of Control serum LUMC to looped peptides of the protein M of SARS-CoV Urbani / Binding of Control Serum Blood-Bank to Looped peptides of the protein M of SARS-CoV Urbani: unit not given here.

For assay [3], the system named is antibodies in sera from SARS patients (sera 1a, 1b, 2, 6, 37, 62, London, SARS-yellow, SARS-green). Type of assay: binding, human. Set-up: Binding of serum 6 to linear peptides of protein X1 of SARS-CoV Urbani / Binding of serum 37 to linear peptides of protein X1 of SARS-CoV Urbani / Binding of serum 6 to looped/cyclic peptide (PEPSCAN-ELISA) / Binding of serum 37 to looped/cyclic peptide (PEPSCAN-ELISA) / Binding of serum 37 to looped/cyclic peptides of protein X1 of SARS-CoV Urbani / Binding of serum 6 to linear peptides of protein X2 / Binding of serum 37 to linear peptides of protein X2 / Binding of serum 37 to looped/cyclic peptides of protein X2 of SARS-CoV Urbani / Binding of serum 6 to linear peptides of protein M of SARS-CoV Urbani / Binding of serum 37 to linear peptides of protein M of SARS-CoV Urbani / Binding of serum 6 to looped/cyclic peptides of protein M of SARS-CoV Urbani / Binding of serum 37 to looped/cyclic peptides of protein M of SARS-CoV Urbani / Binding of serum 6 to linear peptides of protein X3 of SARS-CoV Urbani / Binding of serum 37 to linear peptides of protein X3 of SARS-CoV Urbani / Binding of serum 37 to looped/cyclic peptides of protein X3 of SARS-CoV Urbani / Binding of serum 6 to linear peptides of protein X4 of SARS-CoV Urbani / Binding of serum 37 to linear peptides of protein X4 of SARS-CoV Urbani / Binding of serum 37 to looped/cyclic peptides of protein X4 of SARS-CoV Urbani / Binding of serum 6 to linear peptides of protein X5 of SARS-CoV Urbani / Binding of serum 37 to linear peptides of protein X5 of SARS-CoV Urbani / Binding of serum 37 to looped/cyclic peptides of protein X5 of SARS-CoV Urbani / Binding of serum 6 to linear peptides of protein N of SARS-CoV Urbani / Binding of serum 37 to linear peptides of protein N of SARS-CoV Urbani / Binding of serum 6 to linear peptide (PEPSCAN-ELISA) / Binding of serum 1a to looped/cyclic peptides of protein N of SARS-CoV Urbani / Binding of serum 1b to looped/cyclic peptides of protein N of SARS-CoV Urbani / Binding of serum 2 to looped/cyclic peptides of protein N of SARS-CoV Urbani / Binding of serum 6 to looped/cyclic peptides of protein N of SARS-CoV Urbani / Binding of serum 37 to looped/cyclic peptides of protein N of SARS-CoV Urbani / Binding of serum 62 to looped/cyclic peptides of protein N of SARS-CoV Urbani / Binding of serum London to looped/cyclic peptides of protein N of SARS-CoV Urbani / Binding of serum SARS-green to looped/cyclic peptides of protein N of SARS-CoV Urbani: unit not given here.

EETGTLIVNSVLLFL: in assay [1], the “Binding of a rabbit serum to linear peptides” value worked out at 0.5 and the “Binding of a rabbit serum to looped peptides” value came out at 0.0. For the same sequence, in assay [2], the “Binding of Control Serum Blood-Bank to Looped peptides” value is listed as 0.6, the “Binding of Control serum Blood-bank to linear peptides” value worked out at 0.7, the “Binding of Control serum LUMC to linear peptides” value worked out at 0.6 and the “Binding of Control serum LUMC to looped peptides” value is on record as 0.4. In addition, in assay [3], the “Binding of serum 1a to linear peptides of protein E of SARS-CoV Urbani” value amounted to 0.8, the “Binding of serum 1a to looped/cyclic peptides of protein E of SARS-CoV Urbani” value was 0.4, the “Binding of serum 1b to linear peptides of protein E of SARS-CoV Urbani” value stood at 0.7 and the “Binding of serum 1b to looped/cyclic peptides of protein E of SARS-CoV Urbani” value was 0.3. Besides, in assay [3], the “Binding of serum 2 to linear peptides of protein E of SARS-CoV Urbani” value is 0.4, the “Binding of serum 2 to looped/cyclic peptides of protein E of SARS-CoV Urbani” value was determined as 0.3, the “Binding of serum 6 to linear peptides of protein E of SARS-CoV Urbani” value worked out at 0.6 and the “Binding of serum 6 to looped/cyclic peptides of protein E of SARS-CoV Urbani” value worked out at 0.4. In assay [3], the “Binding of serum 37 to linear peptides of protein E of SARS-CoV Urbani” value turned out to be 0.8, the “Binding of serum 37 to looped/cyclic peptides of protein E of SARS-CoV Urbani” value is 0.4, the “Binding of serum 62 to linear peptides of protein E of SARS-CoV Urbani” value was determined as 0.7 and the “Binding of serum 62 to looped/cyclic peptides of protein E of SARS-CoV Urbani” value was 0.7. In addition, in assay [3], the “Binding of serum London to linear peptides of protein E of SARS-CoV Urbani” value was 0.5, the “Binding of serum London to looped/cyclic peptides of protein E of SARS-CoV Urbani” value was found to be 0.4, the “Binding of serum SARS-green to linear peptides of protein E of SARS-CoV Urbani” value is given as 0.5 and the “Binding of serum SARS-green to looped/cyclic peptides of protein E of SARS-CoV Urbani” value was found to be 0.3. For the same sequence, in assay [3], the “Binding of serum SARS-yellow to linear peptides of protein E of SARS-CoV Urbani” value was 0.2 and the “Binding of serum SARS-yellow to looped/cyclic peptides of protein E of SARS-CoV Urbani” value is reported as 0.5.
As for VAALVFLILCFTIKR, in assay [1], the “Rabbit serum linear peptides” value is 0.5 and the “Rabbit serum looped peptides” value turned out to be 0.6. Also, in assay [2], the “Binding of Control Serum Blood-Bank to Looped peptides” value is listed as 0.8, the “Binding of Control serum Blood-bank to linear peptides” value worked out at 0.5, the “Binding of Control serum LUMC to linear peptides” value is recorded as 0.4 and the “Binding of Control serum LUMC to looped peptides” value was 0.6. Further, in assay [3], the “Binding of serum 1a to linear peptides of protein X4 of SARS-CoV Urbani” value is given as 0.6, the “Binding of serum 1a to looped/cyclic peptides of protein X4 of SARS-CoV Urbani” value turned out to be 0.8, the “Binding of serum 1b to linear peptides of protein X4 of SARS-CoV Urbani” value came out at 0.5 and the “Binding of serum 1b to looped/cyclic peptides of protein X4 of SARS-CoV Urbani” value is 0.4. Further, in assay [3], the “Binding of serum 2 to linear peptides of protein X4 of SARS-CoV Urbani” value is given as 0.4, the “Binding of serum 2 to looped/cyclic peptides of protein X4 of SARS-CoV Urbani” value worked out at 0.7, the “Binding of serum 6 to linear peptides of protein X4 of SARS-CoV Urbani” value is listed as 0.5 and the “Binding of serum 6 to looped/cyclic peptides of protein X4 of SARS-CoV Urbani” value worked out at 0.6. In addition, in assay [3], the “Binding of serum 37 to linear peptides of protein X4 of SARS-CoV Urbani” value was found to be 0.7, the “Binding of serum 37 to looped/cyclic peptides of protein X4 of SARS-CoV Urbani” value was determined as 0.7, the “Binding of serum 62 to linear peptides of protein X4 of SARS-CoV Urbani” value stood at 0.7 and the “Binding of serum 62 to looped/cyclic peptides of protein X4 of SARS-CoV Urbani” value was 0.7. In addition, in assay [3], the “Binding of serum London to linear peptides of protein X4 of SARS-CoV Urbani” value came out at 0.6, the “Binding of serum London to looped/cyclic peptides of protein X4 of SARS-CoV Urbani” value turned out to be 0.3, the “Binding of serum SARS-green to linear peptides of protein X4 of SARS-CoV Urbani” value was found to be 0.5 and the “Binding of serum SARS-green to looped/cyclic peptides of protein X4 of SARS-CoV Urbani” value stood at 0.4. For the same sequence, in assay [3], the “Binding of serum SARS-yellow to linear peptides of protein X4 of SARS-CoV Urbani” value worked out at 0.5 and the “Binding of serum SARS-yellow to looped/cyclic peptides of protein X4 of SARS-CoV Urbani” value stood at 0.5.
In the case of FVSEETGTLIVNSVL, in assay [1], the “Binding of a rabbit serum to linear peptides” value came to 0.3 and the “Binding of a rabbit serum to looped peptides” value is 0.1. In assay [2], the “Binding of Control Serum Blood-Bank to Looped peptides” value turned out to be 0.8, the “Binding of Control serum Blood-bank to linear peptides” value was determined as 0.7, the “Binding of Control serum LUMC to linear peptides” value came to 1.1 and the “Binding of Control serum LUMC to looped peptides” value came out at 0.7. In assay [3], the “Binding of serum 1a to linear peptides of protein E of SARS-CoV Urbani” value is listed as 0.8, the “Binding of serum 1a to looped/cyclic peptides of protein E of SARS-CoV Urbani” value is 0.6, the “Binding of serum 1b to linear peptides of protein E of SARS-CoV Urbani” value turned out to be 0.6 and the “Binding of serum 1b to looped/cyclic peptides of protein E of SARS-CoV Urbani” value was determined as 0.6. For the same sequence, in assay [3], the “Binding of serum 2 to linear peptides of protein E of SARS-CoV Urbani” value stood at 0.5, the “Binding of serum 2 to looped/cyclic peptides of protein E of SARS-CoV Urbani” value is recorded as 0.4, the “Binding of serum 6 to linear peptides of protein E of SARS-CoV Urbani” value is reported as 0.4 and the “Binding of serum 6 to looped/cyclic peptides of protein E of SARS-CoV Urbani” value is listed as 0.5. For the same sequence, in assay [3], the “Binding of serum 37 to linear peptides of protein E of SARS-CoV Urbani” value came out at 0.4, the “Binding of serum 37 to looped/cyclic peptides of protein E of SARS-CoV Urbani” value was determined as 0.6, the “Binding of serum 62 to linear peptides of protein E of SARS-CoV Urbani” value is listed as 0.5 and the “Binding of serum 62 to looped/cyclic peptides of protein E of SARS-CoV Urbani” value turned out to be 0.8. In assay [3], the “Binding of serum London to linear peptides of protein E of SARS-CoV Urbani” value was found to be 0.8, the “Binding of serum London to looped/cyclic peptides of protein E of SARS-CoV Urbani” value was 0.5, the “Binding of serum SARS-green to linear peptides of protein E of SARS-CoV Urbani” value is reported as 0.6 and the “Binding of serum SARS-green to looped/cyclic peptides of protein E of SARS-CoV Urbani” value amounted to 0.6. Moreover, in assay [3], the “Binding of serum SARS-yellow to linear peptides of protein E of SARS-CoV Urbani” value worked out at 0.4 and the “Binding of serum SARS-yellow to looped/cyclic peptides of protein E of SARS-CoV Urbani” value was found to be 0.8.
Consider LAILTALRLCAYCCN, for which, in assay [1], the “Binding of a rabbit serum to linear peptides” value stood at 0.6 and the “Binding of a rabbit serum to looped peptides” value was found to be 0.6. Further, in assay [2], the “Binding of Control Serum Blood-Bank to Looped peptides” value is on record as 0.7, the “Binding of Control serum Blood-bank to linear peptides” value is given as 0.7, the “Binding of Control serum LUMC to linear peptides” value is recorded as 0.6 and the “Binding of Control serum LUMC to looped peptides” value came out at 0.8. In assay [3], the “Binding of serum 1a to linear peptides of protein E of SARS-CoV Urbani” value came out at 0.8, the “Binding of serum 1a to looped/cyclic peptides of protein E of SARS-CoV Urbani” value was 0.8, the “Binding of serum 1b to linear peptides of protein E of SARS-CoV Urbani” value came to 0.7 and the “Binding of serum 1b to looped/cyclic peptides of protein E of SARS-CoV Urbani” value is listed as 0.4. In assay [3], the “Binding of serum 2 to linear peptides of protein E of SARS-CoV Urbani” value is reported as 0.5, the “Binding of serum 2 to looped/cyclic peptides of protein E of SARS-CoV Urbani” value stood at 0.6, the “Binding of serum 6 to linear peptides of protein E of SARS-CoV Urbani” value worked out at 0.5 and the “Binding of serum 6 to looped/cyclic peptides of protein E of SARS-CoV Urbani” value was determined as 0.5. Moreover, in assay [3], the “Binding of serum 37 to linear peptides of protein E of SARS-CoV Urbani” value is recorded as 0.8, the “Binding of serum 37 to looped/cyclic peptides of protein E of SARS-CoV Urbani” value is 0.6, the “Binding of serum 62 to linear peptides of protein E of SARS-CoV Urbani” value came out at 0.8 and the “Binding of serum 62 to looped/cyclic peptides of protein E of SARS-CoV Urbani” value stood at 0.7. In assay [3], the “Binding of serum London to linear peptides of protein E of SARS-CoV Urbani” value turned out to be 0.5, the “Binding of serum London to looped/cyclic peptides of protein E of SARS-CoV Urbani” value amounted to 0.4, the “Binding of serum SARS-green to linear peptides of protein E of SARS-CoV Urbani” value was 0.5 and the “Binding of serum SARS-green to looped/cyclic peptides of protein E of SARS-CoV Urbani” value is 0.5. Also, in assay [3], the “Binding of serum SARS-yellow to linear peptides of protein E of SARS-CoV Urbani” value was 0.2 and the “Binding of serum SARS-yellow to looped/cyclic peptides of protein E of SARS-CoV Urbani” value is on record as 0.8.
